Results on 14 molecules are retold here after ChEMBL document CHEMBL5634150, “Design, synthesis and biological evaluation of novel dihydroquinolin-4(1H)-one derivatives as novel tubulin polymerization inhibitors” (Eur J Med Chem, 2023).

Usually inhibition stands for the percentage by which the read-out fell short of the control. One may read the IC50 as the concentration at which inhibition is half-maximal. For orientation: half-life means the time in which the quantity being followed falls by half. For orientation: solubility means the concentration that dissolves in the medium under given conditions. The low end stands for little dissolved substance, the high end for much dissolved substance.

≈ marks a conversion by molar mass, not a printed value.

Data set [1] has as its system A549. Description: Antiproliferative activity against human A549 cells assessed as inhibition of cell growth at 0.01 uM measured after 72 hrs by MTT assay relative to control. It counts as functional. (Tetrazolium dyes change colour on reduction, which living cells bring about.)
The nature of data set [2]: Antiproliferative activity against human HFL1 cells assessed as inhibition of cell growth measured after 72 hrs by MTT assay. The class given is toxicity, cell-based.
Another data set has as its system HepG2. Nature of the data set: Antiproliferative activity against human HepG2 cells assessed as inhibition of cell growth measured after 72 hrs by MTT assay. It counts as functional, cell-based. The following applies: HepG2, 72 h.
The subject of a further data set is K562. Nature of the data set: Antiproliferative activity against human K562 cells assessed as inhibition of cell growth measured after 72 hrs by MTT assay. The class given is functional, cell-based. As to conditions: K562, 72 h.
Data set [3] has as its system A549. Nature of the data set: Antiproliferative activity against human A549 cells assessed as inhibition of cell growth measured after 72 hrs by MTT assay. The class given is functional, cell-based. As to conditions: A549, 72 h.
Data set [4] deals with A549. Nature of the data set: Antiproliferative activity against human A549 cells assessed as inhibition of cell growth at 0.1 uM measured after 72 hrs by MTT assay relative to control. It counts as functional.
For the next data set, the system named is MDA-MB-231. Nature of the data set: Antiproliferative activity against human MDA-MB-231 cells assessed as inhibition of cell growth measured after 72 hrs by MTT assay. It counts as functional, cell-based. As to conditions: MDA-MB-231, 72 h.
In data set [5] the test system is A549. Nature of the data set: Antiproliferative activity against human A549 cells assessed as inhibition of cell growth at 1 uM measured after 72 hrs by MTT assay relative to control. It counts as functional.
Data set [6] is described as follows: Metabolic stability in mouse liver microsomes assessed as half life at 100 uM measure upto 60 mins in presence of NADPH by LC-MS/MS analysis. It counts as ADME, Microsome. For orientation: Microsomes from liver hold many membrane-bound enzymes, among them those of drug oxidation.
Data set [7] can be described thus: Metabolic stability in mouse plasma assessed as half life at 1 uM and measured upto 3 hrs by LC-MS/MS analysis. The class given is ADME, cell-free.
The subject of a further data set is A549/TR. Description: Antiproliferative activity against human A549/Taxol cells assessed as inhibition of cell growth measured after 72 hrs by MTT assay. It counts as functional, cell-based.
Data set [8] in a line: Aqueous solubility of the compound by HPLC analysis. It counts as physicochemical. The following applies: aqueous (not further specified).
Data set [9] can be described thus: Metabolic stability in mouse plasma assessed as compound remaining at 1 uM and measured at 3 hrs by LC-MS/MS analysis. The class given is ADME, cell-free. The following applies: read-out: Stability.
Data set [10] is described as follows: Metabolic stability in mouse liver microsomes assessed as intrinsic clearance at 100 uM measure upto 60 mins in presence of NADPH by LC-MS/MS analysis. The class given is ADME, Microsome. The following applies: 1 h.
In a further data set the test system is H22. Description: Antitumor activity against mouse H22 cells allografted in mouse model assessed as tumor growth inhibition at 20 mg/kg,iv administered once daily for 3 weeks relative to control. The class given is functional. The following applies: H22, 504 h, read-out: TGI.
Data set [11] in a line: Resistance index, ratio of IC50 for antiproliferative activity against human A549/Taxol cells to IC50 for antiproliferative activity against human A549 cells. The class given is functional.

As to `COc1cc2c(c(OC)c1OC)C(=O)CCN2c1ccc2cc[nH]c2c1`, the inhibition at 0.01 µM in the data set on A549 [1] amounted to 22.4%. For the same molecule, in data set [2], the IC50 at 72 h is 9.75 µM. Further, the half-maximal inhibitory concentration (IC50) worked out at 2.31 µM in the data set with HepG2, 0.902 µM with K562, 0.288 µM in the data set with A549 [3] and 2.89 µM in the data set with MDA-MB-231. The inhibition at 0.1 µM with A549 [4] is 38.2%. In addition, the inhibition at 1 µM in the data set with A549 [5] is 71.1%.
Turning to `COc1cc2c(c(OC)c1OC)C(=O)CCN2c1ccc2[nH]ccc2c1`, the inhibition at 0.01 µM in the data set on A549 [1] amounted to 30.1%. Besides, in data set [2], the IC50 at 72 h is 2.98 µM. Moreover, the IC50 in the data set with HepG2 was found to be 0.855 µM; with K562, 0.182 µM; in the data set with A549 [3], 0.305 µM; in the data set on MDA-MB-231, 0.912 µM. Besides, the inhibition at 0.1 µM in the data set on A549 [4] is 69%. Also, the inhibition at 1 µM in the data set with A549 [5] worked out at 72%.
`COc1cc2c(c(OC)c1OC)C(=O)CCN2c1cccc2c1ccn2C`: the inhibition at 0.01 µM in the data set with A549 [1] came out at 19.2%. Moreover, in data set [2], the IC50 at 72 h was determined as 0.099 µM. The IC50 in the data set with HepG2 stood at 0.021 µM; in the data set on K562 it was 0.007 µM; in the data set on A549 [3], 0.063 µM; in the data set on MDA-MB-231 it was 0.033 µM. Further, the inhibition at 0.1 µM in the data set on A549 [4] stood at 56%. For the same molecule, the inhibition at 1 µM in the data set with A549 [5] worked out at 74.2%.
For `COc1ccc(N2CCC(=O)c3c2cc(OC)c(OC)c3OC)cc1O`, the inhibition at 0.01 µM in the data set on A549 [1] is 43.9%. Besides, the IC50 at 72 h in data set [2] came out at 0.284 µM. For the same molecule, the IC50 in the data set on HepG2 was determined as 0.032 µM; in the data set on K562, 0.03 µM; with A549 [3], 0.034 µM; with MDA-MB-231, 0.096 µM. The inhibition at 0.1 µM with A549 [4] came out at 68.3%. The inhibition at 1 µM in the data set on A549 [5] was determined as 68.4%.
As for `COc1ccc(/C=C\c2cc(OC)c(OC)c(OC)c2)cc1O` [COMBRETASTATIN A4], the half-life at 100 µM in [6] is less than 5 min. For the same molecule, the half-life at 1 µM in [7] is more than 3 h. The inhibition at 0.01 µM in the data set on A549 [1] came out at 76.9%. Besides, the IC50 at 72 h in [2] was determined as 0.091 µM. Besides, the IC50 was 0.033 µM with HepG2; 0.004 µM in the data set on K562; 0.076 µM in the data set with A549/TR; 0.011 µM with A549 [3]; 0.02 µM with MDA-MB-231. This molecule displayed a solubility in data set [8] of 0.96 µg/mL (≈ 3.03 µM). In data set [9], the remaining at 3 h, 1 µM came out at 97.8%. Moreover, in the data set with A549 [4], the inhibition at 0.1 µM stood at 76.2%. The inhibition at 1 µM in the data set with A549 [5] was determined as 78.4%. Moreover, in [10], the CLH was more than 277 µL/min/mg. Besides, in the data set with H22, the inhibition in vivo at 20 mg/kg came to 59.2%.
For the molecule `COc1cc2c(c(OC)c1OC)C(=O)CCN2c1ccc2ccn(C)c2c1`, in the data set on A549 [1], the inhibition at 0.01 µM was found to be 13.2%. For the same molecule, in data set [2], the IC50 at 72 h stood at 2.76 µM. Also, the IC50 turned out to be 0.648 µM in the data set on HepG2, 0.147 µM with K562, 0.17 µM with A549 [3] and 1.14 µM with MDA-MB-231. Also, the inhibition at 0.1 µM in the data set with A549 [4] was determined as 53.4%. In the data set with A549 [5], the inhibition at 1 µM worked out at 61%.
Consider `CC(=O)O[C@H]1C(=O)[C@@]2(C)[C@H]([C@H](OC(=O)c3ccccc3)[C@]3(O)C[C@H](OC(=O)[C@H](O)[C@@H](NC(=O)c4ccccc4)c4ccccc4)C(C)=C1C3(C)C)[C@]1(OC(C)=O)CO[C@@H]1C[C@@H]2O` [PACLITAXEL], for which the IC50 stood at 0.602 µM in the data set with A549/TR and 0.022 µM in the data set on A549 [3]. In addition, the “Ratio IC50” value in data set [11] was 27.36.
On to `COc1cc2c(c(OC)c1OC)C(=O)CCN2c1ccc2c(ccn2C)c1`, for which, in the data set with A549 [1], the inhibition at 0.01 µM was 54.3%. Further, the IC50 at 72 h in [2] worked out at 0.102 µM. Besides, the IC50 with HepG2 was found to be 0.072 µM; in the data set on K562 it was 0.025 µM; with A549 [3], 0.011 µM; in the data set with MDA-MB-231 it was 0.102 µM. Further, in the data set on A549 [4], the inhibition at 0.1 µM turned out to be 78.6%. For the same molecule, in the data set with A549 [5], the inhibition at 1 µM was determined as 79.2%.
As for `COc1ccc(N2CCC(=O)c3cc(OC)c(OC)cc32)cc1O`, the inhibition at 0.01 µM in the data set with A549 [1] was 20.4%. Further, the IC50 at 72 h in data set [2] was 3.3 µM. In addition, the IC50 was found to be 0.672 µM in the data set with HepG2, 0.226 µM in the data set with K562, 0.28 µM in the data set on A549 [3] and 0.902 µM in the data set with MDA-MB-231. In addition, in the data set with A549 [4], the inhibition at 0.1 µM was 44.2%. In addition, in the data set on A549 [5], the inhibition at 1 µM was determined as 73.3%.
For the molecule `COc1cc2c(c(OC)c1OC)C(=O)CCN2c1ccc2c(c1)OCCO2`, the inhibition at 0.01 µM in the data set with A549 [1] was 35.6%. Also, the IC50 at 72 h in [2] was 0.303 µM. The IC50 in the data set with HepG2 stood at 0.163 µM; in the data set with K562 it was 0.081 µM; in the data set on A549 [3], 0.216 µM; in the data set with MDA-MB-231, 0.237 µM. Moreover, the inhibition at 0.1 µM in the data set on A549 [4] stood at 44.9%. Besides, the inhibition at 1 µM with A549 [5] is 72.4%.
`COc1ccc(N2CCC(=O)c3c2cc(OC)c(OC)c3OC)cc1`: in the data set with A549 [1], the inhibition at 0.01 µM came to 34%. Moreover, in data set [2], the IC50 at 72 h was determined as 0.37 µM. The IC50 was found to be 0.077 µM in the data set with HepG2, 0.034 µM in the data set on K562, 0.072 µM with A549 [3] and 0.107 µM in the data set with MDA-MB-231. Also, the inhibition at 0.1 µM in the data set with A549 [4] was 69.3%. In addition, the inhibition at 1 µM with A549 [5] came out at 74.5%.
In the case of `COc1ccc(N2CCCc3c2cc(OC)c(OC)c3OC)cc1O`, in the data set with A549 [1], the inhibition at 0.01 µM amounted to 35%. In [2], the IC50 at 72 h was 2.66 µM. Besides, the IC50 in the data set with HepG2 amounted to 0.668 µM; with K562, 0.297 µM; in the data set on A549 [3], 0.276 µM; with MDA-MB-231 it was 1.06 µM. Also, in the data set on A549 [4], the inhibition at 0.1 µM amounted to 45%. Also, the inhibition at 1 µM with A549 [5] came to 81%.
Regarding `C[C@]12CC[C@H]3[C@@H](CCC4=CC(=O)CC[C@@]43C)[C@@H]1CC[C@@H]2O` [TESTOSTERONE], the CLH in data set [10] is 436 µL/min/mg.
As to `CC(=O)Oc1ccc(C(c2ccc(OC(C)=O)cc2)c2ccccn2)cc1` [BISACODYL], in [9], the remaining at 3 h, 1 µM is 0.003%.
